Source: patent US8080657B2, “Compounds of reverse turn mimetics and the use thereof” (Choongwae Pharma Corporation, priority 2008, dated 2011)

Target: T1, cDNA-expressed human hepatic CYP3A4 (Homo sapiens, UniProt P08684)
T1 construct: purchased BD Gentest 456202
Assay: P450 CYP3A4 inhibitory activity screening (BFC substrate, fluorescence)
Assay type: biochemical
Conditions: P450 CYP3A4 inhibitory activity screening, fluorescent assay; read-out: CYP3A4 inhibition, IC50 (μM) fluorescent assay
Description: P450 CYP3A4 Inhibitory Activity Screening
Assay was conducted in a 200 μL volume in 96-well microtiter plates using cDNA-expressed human hepatic CYP3A4 (supersome, BD Gentest™ #456202). 7-Benzyloxy-4-trifluoromethyl-coumarin (BFC) was used as a substrate for CYP3A4. Test articles and substrate BFC were dissolved in 100% acetonitrile. The final volume of acetonitrile in the incubation mixture was less than 1% (volume/volume). Potassium phosphate buffer (pH 7.4, final concentration 0.1 M), MgCl2 (final concentration 8.3 mM), EDTA (final concentration 1.67 mM), a test article stock solution, a CYP3A4 supersome and NADPH (final concentration 0.25 mM) were added to each well. The reaction was initiated by the addition of substrate (BFC, final concentration 30 µM) after a 10 min pre-incubation at 37° C. After 10 min incubation at 37° C., the reaction was terminated by the addition of 75 μL of acetonitrile:0.5 M Tris-base=4:1 (volume/volume). Thereafter, Fluorescent signal was measured using a fluorometer. BFC metabolite, 7-hydroxy-4-trifluoromethyl-coumarin, was measured using an excitation wavelength of 409 nm and an emission wavelength of 530 nm.

T1 sequence (P08684 whole entry): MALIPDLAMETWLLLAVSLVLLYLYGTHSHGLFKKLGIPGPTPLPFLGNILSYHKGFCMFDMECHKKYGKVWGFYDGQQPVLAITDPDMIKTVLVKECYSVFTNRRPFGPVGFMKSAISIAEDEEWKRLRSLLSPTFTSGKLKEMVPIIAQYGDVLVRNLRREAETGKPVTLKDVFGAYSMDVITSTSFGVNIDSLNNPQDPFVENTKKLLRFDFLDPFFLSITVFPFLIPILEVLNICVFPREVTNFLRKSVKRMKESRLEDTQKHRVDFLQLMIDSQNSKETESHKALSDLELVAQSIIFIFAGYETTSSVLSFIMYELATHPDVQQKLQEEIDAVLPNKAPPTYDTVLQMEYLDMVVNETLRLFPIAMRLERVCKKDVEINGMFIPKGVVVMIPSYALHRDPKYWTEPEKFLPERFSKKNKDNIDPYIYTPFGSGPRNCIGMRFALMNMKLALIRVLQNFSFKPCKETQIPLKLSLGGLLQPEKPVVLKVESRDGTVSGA

SMILES	IC50
C=CCN1CC(=O)N2[C@@H](Cc3ccc(O)cc3)C(=O)N(Cc3cccc(-c4ccc[nH]c4=O)c3)C[C@@H]2N1C(=O)NCc1ccccc1 [compound 10]	7.02 µM
C=CCN1CC(=O)N2[C@@H](Cc3ccc(O)cc3)C(=O)N(Cc3cccc(C(=O)OC)c3)C[C@@H]2N1C(=O)NCc1ccccc1 [compound 11]	7.58 µM
C=CCN1CC(=O)N2[C@@H](Cc3ccc(O)cc3)C(=O)N(Cc3cccc(C(=O)NCC4CC4)c3)C[C@@H]2N1C(=O)NCc1ccccc1 [compound 12]	7.65 µM
C=CCN1CC(=O)N2[C@@H](Cc3ccc(O)cc3)C(=O)N(Cc3cccc(C(=O)NC)c3)C[C@@H]2N1C(=O)NCc1ccccc1 [compound 13]	8 µM
C=CCN1CC(=O)N2[C@@H](Cc3ccc(O)cc3)C(=O)N(Cc3cccc4c3ncn4CCC)C[C@@H]2N1C(=O)NCc1ccccc1 [compound 14]	8.42 µM
C=CCN1CC(=O)N2[C@@H](Cc3ccc(O)cc3)C(=O)N(Cc3cccc(C(C)=O)c3)C[C@@H]2N1C(=O)NCc1ccccc1 [compound 15]	8.79 µM
C=CCN1CC(=O)N2[C@@H](Cc3ccc(OS(N)(=O)=O)cc3)C(=O)N(Cc3cccc(N4CCCC4=O)c3)C[C@@H]2N1C(=O)NCc1ccccc1 [compound 16]	9 µM
C=CCN1CC(=O)N2[C@@H](Cc3ccc(O)cc3)C(=O)N(Cc3cccc(C(=O)NCC4CCCO4)c3)C[C@@H]2N1C(=O)NCc1ccccc1 (some centres unmarked) [compound 17]	9.02 µM
C=CCN1CC(=O)N2[C@@H](Cc3ccc(O)cc3)C(=O)N(Cc3cccc(NS(C)(=O)=O)c3)C[C@@H]2N1C(=O)NCc1ccccc1 [compound 18]	9.16 µM
C=CCN1CC(=O)N2[C@@H](Cc3ccc(O)cc3)C(=O)N(Cc3cccc(C#N)c3)C[C@@H]2N1C(=O)NCc1ccccc1 [compound 19]	9.65 µM
C=CCN1CC(=O)N2[C@@H](Cc3ccc(O)cc3)C(=O)N(Cc3cccc(C(=O)N4CCOCC4)c3)C[C@@H]2N1C(=O)NCc1ccccc1 [compound 20]	10.1 µM
C=CCN1CC(=O)N2[C@@H](Cc3ccc(O)cc3)C(=O)N(Cc3cccc(N(C)C(=O)OC)c3)C[C@@H]2N1C(=O)NCc1ccccc1 [compound 21]	10.2 µM
C=CCN1CC(=O)N2[C@@H](Cc3ccc(O)cc3)C(=O)N(Cc3cccc(C(=O)N(C)C)c3)C[C@@H]2N1C(=O)NCc1ccccc1 [compound 22]	11.6 µM
C=CCN1CC(=O)N2[C@@H](Cc3ccc(OS(N)(=O)=O)cc3)C(=O)N(Cc3cccc4c3ncn4C)C[C@@H]2N1C(=O)NCc1ccccn1 [compound 23]	12 µM
C=CCN1CC(=O)N2[C@@H](Cc3ccc(O)cc3)C(=O)N(Cc3cccc(-c4cccc(C(=O)O)c4)c3)C[C@@H]2N1C(=O)NCc1ccccc1 [compound 24]	12.9 µM
C=CCN1CC(=O)N2[C@@H](Cc3ccc(O)cc3)C(=O)N(Cc3cccc(C(=O)NC)n3)C[C@@H]2N1C(=O)NCc1ccccc1 [compound 25]	13.1 µM
C=CCN1CC(=O)N2[C@@H](Cc3ccc(O)cc3)C(=O)N(Cc3ccccc3-n3cnnn3)C[C@@H]2N1C(=O)NCc1ccccc1 [compound 26]	13.5 µM
C=CCN1CC(=O)N2[C@@H](Cc3ccc(O)cc3)C(=O)N(Cc3cccc(NC(=O)NC(N)=O)c3)C[C@@H]2N1C(=O)NCc1ccccc1 [compound 27]	16.8 µM
C=CCN1CC(=O)N2[C@@H](Cc3ccc(O)cc3)C(=O)N(Cc3cccc(NC(C)=O)c3)C[C@@H]2N1C(=O)NCc1ccccc1 [compound 28]	17.9 µM
C#CCN1C[C@H]2N(C(=O)CN(CC=C)N2C(=O)NCc2ccccc2)[C@@H](Cc2ccc(O)cc2)C1=O [compound 29]	18.1 µM
C=CCN1CC(=O)N2C(CN(Cc3ccccc3S(C)(=O)=O)C(=O)[C@@H]2Cc2ccc(O)cc2)N1C(=O)NCc1ccccc1 (some centres unmarked) [compound 30]	18.7 µM
C=CCN1CC(=O)N2[C@@H](Cc3ccc(O)cc3)C(=O)N(Cc3cccc(C(=O)OCC)n3)C[C@@H]2N1C(=O)NCc1ccccc1 [compound 31]	18.9 µM
C=CCN1CC(=O)N2[C@@H](Cc3ccc(O)cc3)C(=O)N(Cc3cccc(C(=O)NCCOC)n3)C[C@@H]2N1C(=O)NCc1ccccc1 [compound 32]	19.9 µM
C=CCN1CC(=O)N2[C@@H](Cc3ccc(O)cc3)C(=O)N(Cc3cccc(NC(=O)OC)c3)C[C@@H]2N1C(=O)NCc1ccccc1 [compound 33]	24.2 µM
C=CCN1CC(=O)N2[C@@H](Cc3ccc(O)cc3)C(=O)N(Cc3ccccc3S(C)(=O)=O)C[C@@H]2N1C(=O)NCc1ccccn1 [compound 34]	24.5 µM

SMILES	IC50
C=CCN1CC(=O)N2[C@@H](Cc3ccc(OS(N)(=O)=O)cc3)C(=O)N(Cc3cccc(C(=O)NC)n3)C[C@@H]2N1C(=O)NCc1ccccc1 [compound 35]	26.4 µM
C=CCN1CC(=O)N2[C@@H](Cc3ccc(O)cc3)C(=O)N(Cc3cccc(NC(N)=O)c3)C[C@@H]2N1C(=O)NCc1ccccc1 [compound 37]	34.3 µM
C=CCN1CC(=O)N2[C@@H](Cc3ccc(O)cc3)C(=O)N(Cc3cccc(C(=O)N(C)C)n3)C[C@@H]2N1C(=O)NCc1ccccc1 [compound 39]	35.3 µM
CN1CC(=O)N2[C@@H](Cc3ccc(O)cc3)C(=O)N(Cc3cccc4c3ncn4C)C[C@@H]2N1C(=O)NCc1ccccc1 [compound 40]	39.1 µM
C=CCN1CC(=O)N2[C@@H](Cc3ccc(O)cc3)C(=O)N(Cc3cccc(C(=O)NOC)c3)C[C@@H]2N1C(=O)NCc1ccccc1 [compound 41]	41.4 µM
C=CCN1CC(=O)N2[C@@H](Cc3ccc(O)cc3)C(=O)N(Cc3cccc(C(=O)NCCO)c3)C[C@@H]2N1C(=O)NCc1ccccc1 [compound 42]	44.1 µM
C=CCN1CC(=O)N2[C@@H](Cc3ccc(O)cc3)C(=O)N(Cc3cccc(C(N)=O)c3[N+](=O)[O-])C[C@@H]2N1C(=O)NCc1ccccc1 [compound 43]	44.4 µM
C=CCN1CC(=O)N2[C@@H](Cc3ccc(O)cc3)C(=O)N(Cc3ccnc(C(N)=O)c3)C[C@@H]2N1C(=O)NCc1ccccc1 [compound 44]	45.1 µM
C=CCN1CC(=O)N2[C@@H](Cc3ccc(O)cc3)C(=O)N(Cc3cccc4c3nc(C(F)(F)F)n4C)C[C@@H]2N1C(=O)NCc1ccccc1 [compound 45]	> 10 µM
C=CCN1CC(=O)N2[C@@H](Cc3ccc(O)cc3)C(=O)N(Cc3cccc(N4CCCC4=O)c3)C[C@@H]2N1C(=O)NCc1ccccn1 [compound 46]	> 50 µM
C=CCN1CC(=O)N2[C@@H](Cc3ccc(O)cc3)C(=O)N(Cc3cccc4c3ncn4C)C[C@@H]2N1C(=O)NCc1ccccn1 [compound 47]	> 50 µM
C=CCN1CC(=O)N2[C@@H](Cc3ccccc3)C(=O)N(Cc3cccc(C(=O)O)c3)C[C@@H]2N1C(=O)NCc1ccccc1 [compound 48]	> 50 µM
O=C(O)c1cccc(CN2C[C@H]3N(C(=O)CN(Cc4ccccc4)N3C(=O)NCc3ccccc3)[C@@H](Cc3ccc(O)cc3)C2=O)c1 [compound 49]	> 50 µM
C=CCN1CC(=O)N2[C@@H](Cc3ccc(O)cc3)C(=O)N(Cc3cccc(C(=O)O)c3)C[C@@H]2N1C(=O)NCc1ccc(Cl)cc1Cl [compound 50]	> 50 µM
C=CCN1CC(=O)N2[C@@H](Cc3ccc(O)cc3)C(=O)N(Cc3cccc(C(=O)N[C@@H](CCC(=O)O)C(=O)O)c3)C[C@@H]2N1C(=O)NCc1ccccc1 [compound 51]	> 50 µM
C=CCN1CC(=O)N2[C@@H](Cc3ccc(O)cc3)C(=O)N(Cc3cccc(C(N)=O)n3)C[C@@H]2N1C(=O)NCc1ccccc1 [compound 52]	> 50 µM
C=CCN1CC(=O)N2[C@@H](Cc3ccc(O)cc3)C(=O)N(Cc3cccc(C(N)=O)c3)C[C@@H]2N1C(=O)NCc1ccccc1 [compound 53]	> 50 µM
C=CCN1CC(=O)N2[C@@H](Cc3ccc(O)cc3)C(=O)N(Cc3cccc(C(=O)O)c3)C[C@@H]2N1C(=O)NCc1ccccc1 [compound 54]	> 50 µM
C=CCN1CC(=O)N2[C@@H](Cc3ccc(OS(N)(=O)=O)cc3)C(=O)N(Cc3cccc(C(=O)O)c3)C[C@@H]2N1C(=O)NCc1ccccc1 [compound 55]	> 50 µM
C=CCN1CC(=O)N2[C@@H](Cc3ccc(O)cc3)C(=O)N(Cc3cccc(C(=O)O)n3)C[C@@H]2N1C(=O)NCc1ccccc1 [compound 56]	> 50 µM
C=CCN1CC(=O)N2[C@@H](Cc3ccc(O)cc3)C(=O)N(Cc3ccc(CP(=O)(O)O)cc3)C[C@@H]2N1C(=O)NCc1ccccc1 [compound 57]	> 50 µM
C=CCN1CC(=O)N2[C@@H](Cc3ccc(O)cc3)C(=O)N(Cc3cccc4c3ncn4CC(N)=O)C[C@@H]2N1C(=O)NCc1ccccc1 [compound 58]	> 50 µM
C=CCN1CC(=O)N2C(Cc3ccc(O)cc3)C(=O)N(Cc3cccc4c(-c5ccccc5)cn(S(=O)(=O)c5ccccc5)c34)C[C@@H]2N1C(=O)NCc1ccccc1 (some centres unmarked) [compound 59]	2.63 µM
C=CCN1CC(=O)N2[C@@H](Cc3ccc(O)cc3)C(=O)N(Cc3cccc4c(C(C)=O)c[nH]c34)C[C@@H]2N1C(=O)NCc1ccccc1 [compound 60]	4.84 µM
C=CCN1CC(=O)N2[C@@H](Cc3ccc(O)cc3)C(=O)N(Cc3cccc4c(C(=O)C5CC5)c[nH]c34)C[C@@H]2N1C(=O)NCc1ccccc1 [compound 61]	5.92 µM
